Data from EP4656186A1, “NOVEL SOLID DISPERSION AND METHOD FOR PREPARING SAME” (ST Pharm Co., Ltd., priority 2023, dated 2024).

How the values were obtained:
[1] = Solubility in fasted state simulated intestinal fluid (FaSSIF); assay type: physicochemical; details: thermodynamic from solid, After 4 hours at room temperature
From the text: Experimental Example 2: Confirmation of Solubility of Examples 1 to 5 in FaSSIF
The solubility of the solid dispersions prepared in Examples 1 to 5 in fasted state simulated intestinal fluid (FaSSIF) was confirmed, and the results are shown in Table 1.
Experimental Example 4: Confirmation of Solubility of Examples 6 to 7 in FaSSIF
The solubility of the solid dispersions prepared in Examples 6 to 7 in fasted state simulated intestinal fluid (FaSSIF) was confirmed in the same manner as in Experimental Example 2, and the results are shown in Table 2.

[2] = Pharmacokinetic test (in vivo), oral administration, plasma concentration by LC-MS/MS; design: species or system rats; details: 10 mg/kg
Description: Experimental Example 5: Confirmation of Bioavailability of Examples 1 and 6
Specifically, the drug was administered orally to rats, and blood was collected from the jugular vein at a predetermined time. The collected blood was centrifuged to separate plasma, pretreated, and then the concentration was analyzed by LC-MS/MS. Non-compartmental pharmacokinetic parameters were calculated using WinNonlin (Phoenix™, version 6.1) from the analyzed blood concentration-time data of the drug, and the results are shown in Table 3.

solubility at 4 h ([1]; Table 1 (Experimental Example 2)): 1.89 µg/mL
solubility at 4 h ([1]; Table 2 (Experimental Example 4)): 1.66 µg/mL
AUClast Fold change ([2]; relative to the compound of Chemical Formula I): 1.00
AUC(0-t) ([2]; rat, plasma): 5460 ng·h/mL
Cmax ([2]; rat, plasma): 1020 ng/mL
Tmax ([2]; rat, plasma): 1 h
half-life ([2]; rat, plasma): 5.39 h
Compound: COCCOc1cc(F)c(N2CCN(c3nc4c(nnn4C)c(=O)[nH]3)CC2)c(F)c1 [Compound of Chemical Formula I]
